Measured values reported in US20230151069A1, “Cyclic Peptides” (LIFEARC, priority 2020, published 2023).

Legend:
5XFAD mice = assay: Active immunisation, in vivo glucose metabolism by 18F-FDG-PET/MRI in 5XFAD mice; set-up: species or system mouse; conditions: immunized 5XFAD mice, FIG. 30
Method: 18F-FDG-PET/MRI was performed on 5xFAD mice as well as age matched C57Bl/6J wild type mice. Mice were fasted overnight and blood glucose levels were measured before tracer injection. 11.46 to 20.53 MBq (mean 16.81 MBq) 18F-FDG was injected intravenously into a tail vein with a maximum volume of 200 μl followed by an uptake period of 45 minutes. Mice were awake during the uptake process. PET scans were performed for 20 minutes using a small animal 1 Tesla nanoScan PET/MRI (Mediso, Hungary). Mice were anesthetized with isoflurane supplemented with oxygen during the scans and kept on a heated bed (37° C.). Respiratory rate was measured throughout the imaging process. […]
All images were analyzed using PMOD v3.9 (PMOD Technologies, Switzerland) as described before (Bouter et al). […] PET VOI statistics (kBq/cc) were generated for all brain areas and standardized uptake values (SUVs) were calculated [SUV=tissue activity concentration average (kBq/cc)×body weight (g)/injected dose (kBq)] for semi-quantitative analysis. SUVs of 18F-FDG-PET scans were corrected for measured blood glucose levels [SUVGIc=SUV x blood glucose level (mg/dl)]. […]
In vivo glucose metabolism on Alzheimer mice (5XFAD) as well as age matched C57Bl/6J wild type mice was analysed by 18F-FDG-PET/MRI imaging as described above.

Tg4-42 mice [1] = assay: Spatial reference memory by Morris water maze in Tg4-42 mice; assay type: in vivo, mouse; conditions: aged Tg4-42 mice, FIG. 31A
Method: (§1) Tg4-42 mice were immunized at 6 weeks of age for 12 weeks with antigen [Thioacetal bridged Abeta peptide 1-14—KLH conjugate; DAC*[…]*HH[Cys]-amide (*S—CH—S bridged)] emulsified in complete Freund's adjuvant (CFA), followed by booster doses of protein emulsified in incomplete Freund's adjuvant (IFA). Booster injections of antigen emulsified in IFA was administered at day 14, day 28, day 42, thereafter monthly (3 times after month 4, 5 and 6), after immunization with antigen/CFA emulsion. Mice were acclimated at our facility for at least 7 days before immunization. Mice were injected with antigen emulsified in CFA or IFA subcutaneously at two sites on the back, injecting 0.05 to 0.1 mL at each site (total of 0.1 to 0.2 mL per mouse). […]
Spatial reference memory in mice was evaluated using the Morris water maze (R. Morris, Developments of a water-maze procedure for studying spatial learning in the rat. J. Neurosci. Methods 11, 47-60 (1984)) as described previously (Y. Bouter et al., N-truncated amyloid beta (Abeta) 4-42 forms stable aggregates and induces acute and long-lasting behavioral deficits. Acta Neuropathol 126, 189-205 (2013)).
(§2) The treatment effect of active immunization was assessed in 6.5 month old Tg4-42 mice on hippocampus-dependent learning and memory by the Morris water maze test (FIG. 31A) and by counting the total number of CA1 neurons in the hippocampus (FIG. 31B). […]

Tg4-42 mice [2] = assay: Quantification of CA1 neuron numbers by unbiased stereology in Tg4-42 mice; assay type: in vivo, mouse; conditions: aged Tg4-42 mice
Method: as §1, with “immunization.” for “immunization. Mice were injected with antigen emulsified in CFA or IFA subcutaneously at two sites on the back, injecting 0.05 to 0.1 mL at each site (total of 0.1 to 0.2 mL per mouse).”
Stereological analysis was performed as previously described (G. Antonios et al., Alzheimer therapy with an antibody against N-terminal Abeta 4-X and pyroglutamate Abeta 3-X. Scientific reports 5, 17338 (2015)). The hippocampal cell layer CA1 (Bregma −1.22 to −3.52 mm) was delineated on cresyl violet-stained sections and analysed with a stereology workstation (Olympus BX51 with a motorized specimen stage for automatic sampling), StereoInvestigator 7 (MicroBrightField, Williston, USA) and a 100x oil lens (NA=1.35).
as §2

[3] = test system: full-length amyloid-beta 1-42; assay: Reactivity of antibodies induced by the cyclic peptide with full-length amyloid-beta; assay type: in vivo; conditions: antibodies induced by immunisation
Method: • 1. Coat 384-well plate with 30 μL/well of 100 ng/ml PSL amyloid 1-42 peptide (Human-Peptide Specialty Laboratories-CEM1904161) diluted in carb/bicarb buffer • 2. Incubate at 37° C. for 1 hour • 3. Wash the plate (NUNC 384 program) • 4. […] Incubate at 4° C. overnight • 6. Wash the plate (NUNC 384 program) • 7. […] Transfer 30 μL/well onto the assay plate • 10. Incubate at 37° C. for 1 hour • 11. Wash the plate (NUNC 384 program) • 12. […] Incubate at 37° C. for 1 hour • 14. Wash the plate (NUNC 384 program) • 15. […] Incubate at RT for 10 min in the dark • 17. […] Coat 384-well plate with 30 μL/well of 100 ng/ml PSL amyloid pE3-42 peptide (Human-Peptide Specialty Laboratories-CEM062210 Pyr) diluted in carb/bicarb buffer • 2. Incubate at 37° C. for 1 hour • 3. Wash the plate (NUNC 384 program) • 4. […] Incubate at 4° C. overnight • 6. Wash the plate (NUNC 384 program) • 7. […] Transfer 30 μL/well onto the assay plate • 10. Incubate at 37° C. for 1 hour • 11. Wash the plate (NUNC 384 program) • 12. […] Incubate at 37° C. for 1 hour • 14. Wash the plate (NUNC 384 program) • 15. […] Incubate at RT for 10 min in the dark • 17.

DAC*FRHDSGYEC*HH[Cys]-amide (*S—CH—S bridged, cyclised via positions 3 and 12)
brain glucose metabolism (18F-FDG uptake) (5XFAD mice): significant rescue | learning and memory deficits, Morris water maze probe trial (Tg4-42 mice [1]; listed as 3-12 linked A61-14 cyclic peptide): substantial rescue of learning and memory deficits | learning and memory deficits, Morris water maze probe trial (Tg4-42 mice [1]; listed as cylised Aβ peptide): rescued memory deficits | loss / number of CA1 neurons (in words) (Tg4-42 mice [2]; FIG. 31B): significantly reduced loss of neurons | mean number (+SEM) of neurons in CA1 layer of hippocampus (Tg4-42 mice [2]; IgG1 treated control 128687+13035): 185858+39180 | reactivity of induced antibodies with full-length amyloid-beta 1-42 [3]: do not react
